The subject of this test is Prostate cancer cells 22RV1. Put plainly: Experiment on inhibiting 22RV1 cell proliferation (CellTiter-Glo, 7 days). It is filed as cell-based. The conditions noted are these: Homo sapiens, 168 h, 22RV1 cells, 7 days incubation, read-out: IC50 values for inhibition of 22RVI cells. As for the experimental part: Prostate cancer cells 22RV1 were purchased from ATCC, the cell medium was RPMI 1640+10% FBS, and the cells were cultured in an incubator at 37° C. under 5% CO2. On day 1, the cells in the exponential growth phase were collected. With a 1% css-FBS phenol red-free medium, the cell suspension was adjusted to a corresponding concentration, plated at 2000 cells/well and incubated overnight. On day 2, compounds at different concentrations were added, and the plate was placed in the incubator and incubated for further 7 days. After the incubation was completed, according to operation instructions for a CellTiter-Glo kit (Promega, G7573), 50 μL of CellTiter-Glo reagents, which were already pre-melted and equilibrated to room temperature, were added to each well, and the mixtures were uniformly mixed for 2 min using a microplate shaker. The plate was placed at room temperature for 10 min. and then […] signal values were measured using a microplate reader (PHERAstar FSX). The results were processed according to formula (I), the inhibition rate of the compound at different concentrations was calculated, and the IC50 value of the compound with an inhibition rate of 50% was calculated using origin9.2 software with DoseResp function, wherein RLUcompound was the readout of the treated group, and RLUcontrol was the average value of the DMSO vehicle control group.

Setting [1] is: cells with nM printed beside the value.
The mark [2] stands for this setting: cells without a unit of their own (μM).

Read-outs that look alike come from different tables or passages of the source.

In the case of `N#Cc1ccc(NC(=O)C2(n3cc(C#CC4CN(c5ccc6c(c5)C(=O)N(C5CCC(=O)NC5=O)C6=O)C4)cn3)CCC2)c2ccccc12` (centres unmarked) [Compound 34, N-(4-cyanonaphthalen-1-yl)-1-(4-((1-(2-(2,6-dioxopiperidin-3-yl)-1,3-dioxoisoindolin-5-yl)azetidin-3-yl)ethynyl)-1H-pyrazol-1-yl)cyclobutane-1-carboxamide], the IC50 (commonly the midpoint of a concentration-inhibition curve) under setting [1] is less than 100 nM. As for `O=C1CCC(N2C(=O)c3ccc(N4CC(C#Cc5cnn(C6(C(=O)Nc7ccc(C(F)(F)F)cc7C7CC7)CCC6)c5)C4)cc3C2=O)C(=O)N1` (centres unmarked) [Compound 35, N-(2-cyclopropyl-4-(trifluoromethyl)phenyl)-1-(4-((1-(2-(2,6-dioxopiperidin-3-yl)-1,3-dioxoisoindolin-5-yl)azetidin-3-yl)ethynyl)-1H-pyrazol-1-yl)cyclobutane-1-carboxamide], the IC50 under setting [1] is less than 50 nM.

`N#Cc1ccc(NC(=O)C2(n3cc(C#CC4CN(c5ccc6c(c5)C(=O)N(C5CCC(=O)NC5=O)C6=O)C4)cn3)CCC2)cc1C1CC1` (centres unmarked) [Compound 40, N-(4-cyano-3-cyclopropylphenyl)-1-(4-((1-(2-(2,6-dioxopiperidin-3-yl)-1,3-dioxoisoindolin-5-yl)azetidin-3-yl)ethynyl)-1H-pyrazol-1-yl)cyclobutane-1-carboxamide]: the IC50 under setting [1] was less than 100 nM.

`CCC(CC)(C(=O)Nc1ccc(C#N)c(C(F)(F)F)c1)n1cc(C#CC2CN(c3ccc4c(c3)C(=O)N(C3CCC(=O)NC3=O)C4=O)C2)cn1` (centres unmarked) [Compound 41, N-(4-cyano-3-(trifluoromethyl)phenyl)-2-(4-((1-(2-(2,6-dioxopiperidin-3-yl)-1,3-dioxoisoindolin-5-yl)azetidin-3-yl)ethynyl)-1H-pyrazol-1-yl)-2-ethylbutanamide]: under setting [1], the concentration for half-maximal inhibition (IC50) was less than 50 nM. In the case of `CC(C)(C(=O)Nc1ccc(C(F)(F)F)cc1C#N)n1cc(C#CC2CN(c3ccc4c(c3)C(=O)N(C3CCC(=O)NC3=O)C4=O)C2)cn1` (centres unmarked) [Compound 42, N-(2-cyano-4-(trifluoromethyl)phenyl)-2-(4-((1-(2-(2,6-dioxopiperidin-3-yl)-1,3-dioxoisoindolin-5-yl)azetidin-3-yl)ethynyl)-1H-pyrazol-1-yl)-2-methylpropanamide], the IC50 under setting [2] is less than 1000 nM. Regarding `CC(C)(C(=O)Nc1ccc(C#N)c2ncccc12)n1cc(C#CC2CN(c3ccc4c(c3)C(=O)N(C3CCC(=O)NC3=O)C4=O)C2)cn1` (centres unmarked) [Compound 43, N-(8-cyanoquinolin-5-yl)-2-(4-((1-(2-(2,6-dioxopiperidin-3-yl)-1,3-dioxoisoindolin-5-yl)azetidin-3-yl)ethynyl)-1H-pyrazol-1-yl)-2-methylpropanamide], the IC50 under setting [2] was less than 1000 nM. Regarding `CC(C)(C(=O)Nc1ccc(C#N)cc1C(F)(F)F)n1cc(C#CC2CN(c3ccc4c(c3)C(=O)N(C3CCC(=O)NC3=O)C4=O)C2)cn1` (centres unmarked) [Compound 44, N-(4-cyano-2-(trifluoromethyl)phenyl)-2-(4-((1-(2-(2,6-dioxopiperidin-3-yl)-1,3-dioxoisoindolin-5-yl)azetidin-3-yl)ethynyl)-1H-pyrazol-1-yl)-2-methylpropanamide], the IC50 under setting [2] is less than 1000 nM. `N#Cc1ccc(NC(=O)C2(n3cc(C#CC4CN(c5ccc6c(c5)C(=O)N(C5CCC(=O)NC5=O)C6=O)C4)cn3)CCC2)c(C2CC2)c1` (centres unmarked) [Compound 45, N-(4-cyano-2-cyclopropylphenyl)-1-(4-((1-(2-(2,6-dioxopiperidin-3-yl)-1,3-dioxoisoindolin-5-yl)azetidin-3-yl)ethynyl)-1H-pyrazol-1-yl)cyclobutane-1-carboxamide]: the half-inhibitory concentration (IC50) under setting [1] is less than 50 nM. With `CCC(C)(C(=O)Nc1ccc(C#N)c(C(F)(F)F)c1)n1cc(C#CC2CN(c3ccc4c(c3)C(=O)N(C3CCC(=O)NC3=O)C4=O)C2)cn1` (centres unmarked) [Compound 46, N-(4-cyano-3-(trifluoromethyl)phenyl)-2-(4-((1-(2-(2,6-dioxopiperidin-3-yl)-1,3-dioxoisoindolin-S-yl)azetidin-3-yl)ethynyl)-1H-pyrazol-1-yl)-2-methylbutanamide], under setting [2], the IC50 is less than 1000 nM.

Take `N#Cc1ccc(NC(=O)C2(n3cc(C#CC4CN(c5ccc6c(c5)C(=O)N(C5CCC(=O)NC5=O)C6=O)C4)cn3)CCCC2)cc1C(F)(F)F` (centres unmarked) [Compound 48, N-(4-cyano-3-(trifluoromethyl)phenyl)-1-(4-((1-(2-(2,6-dioxopiperidin-3-yl)-1,3-dioxoisoindolin-5-yl)azetidin-3-yl)ethynyl)-1H-pyrazol-1-yl)cyclopentane-1-carboxamide]: the IC50 under setting [1] is less than 100 nM.

For `N#Cc1ccc(NC(=O)C2(n3cc(C#CC4CN(c5ccc6c(c5)C(=O)N(C5CCC(=O)NC5=O)C6=O)C4)cn3)CCC2)cc1N1CCCC1` (centres unmarked) [Compound 50, N-(4-cyano-3-(pyrrolidin-1-yl)phenyl)-1-(4-((1-(2-(2,6-dioxopiperidin-3-yl)-1,3-dioxoisoindolin-5-yl)azetidin-3-yl)ethynyl)-1H-pyrazol-1-yl)cyclobutane-1-carboxamide], the IC50 under setting [1] is less than 100 nM.

On to `CC(C)(C(=O)Nc1ccc(C(F)(F)F)cc1-n1cccn1)n1cc(C#CC2CN(c3ccc4c(c3)C(=O)N(C3CCC(=O)NC3=O)C4=O)C2)cn1` (centres unmarked) [Compound 51, N-(2-(1H-pyrazol-1-yl)-4-(trifluoromethyl)phenyl)-2-(4-((1-(2-(2,6-dioxopiperidin-3-yl)-1,3-dioxoisoindolin-5-yl)azetidin-3-yl)ethynyl)-1H-pyrazol-1-yl)-2-methylpropanamide], for which, under setting [1], the IC50 was less than 50 nM. Take `CNC(=O)c1cc(C(F)(F)F)ccc1NC(=O)C(C)(C)n1cc(C#CC2CN(c3ccc4c(c3)C(=O)N(C3CCC(=O)NC3=O)C4=O)C2)cn1` (centres unmarked) [Compound 52, 2-(2-(4-((1-(2-(2,6-dioxopiperidin-3-yl)-1,3-dioxoisoindolin-5-yl)azetidin-3-yl)ethynyl)-1H-pyrazol-1-yl)-2-methylpropanamido)-N-methyl-5-(trifluoromethyl)benzamide]: the half-maximal inhibitory concentration (IC50) under setting [2] is less than 1000 nM. With `Cc1cc(C(F)(F)F)ccc1NC(=O)C(C)(C)n1cc(C#CC2CN(c3ccc4c(c3)C(=O)N(C3CCC(=O)NC3=O)C4=O)C2)cn1` (centres unmarked) [Compound 59], the IC50 under setting [1] was less than 50 nM. Regarding `CC(C)(C(=O)Nc1ccc(C#N)c2ccccc12)n1cc(C#CC2(F)CN(c3ccc4c(c3)C(=O)N(C3CCC(=O)NC3=O)C4=O)C2)cn1` (centres unmarked) [Compound 68, N-(4-cyanonaphthalen-1-yl)-2-(4-(2-(1-(2-(2,6-dioxopiperidin-3-yl)-1,3-dioxo-2,3-dihydro-1H-isoindol-5-yl)-3-fluoroazetidin-3-yl)ethynyl)-1H-pyrazol-1-yl)-2-methylpropanamide], the IC50 under setting [1] was less than 50 nM. The same measure, in the same setting: with `O=C1CCC(N2C(=O)c3ccc(N4CC(C#Cc5cnn(C6(C(=O)Nc7ccc(C(F)(F)F)cc7Cl)CCCC6)c5)C4)cc3C2=O)C(=O)N1` (centres unmarked) [Compound 69, N-(2-chloro-4-(trifluoromethyl)phenyl)-1-(4-((1-(2-(2,6-dioxopiperidin-3-yl)-1,3-dioxoisoindolin-S-yl)azetidin-3-yl)ethynyl)-1H-pyrazol-1-yl)cyclopentane-1-carboxamide] the figure was less than 50 nM. As for `O=C1CCC(N2C(=O)c3ccc(N4CC(F)(C#Cc5cnn(C6(C(=O)Nc7ccc(C(F)(F)F)cc7Cl)CCC6)c5)C4)cc3C2=O)C(=O)N1` (centres unmarked) [Compound 71], the IC50 under setting [1] is less than 50 nM.

(Values after patent US20250171417A1, “HETEROCYCLIC DERIVATIVE, AND COMPOSITION AND PHARMACEUTICAL USE THEREOF” (Xizang Haisco Pharmaceutical Co., Ltd., priority 2021, published 2025).)
